According to PMC6979384, “Characterization of the plant homeodomain (PHD) reader family for their histone tail interactions” (Epigenetics & Chromatin, 2020):

Columns and labels:
Test in all cases: Histone peptide microarray
Type in all cases: binding, human
Settings in all cases: histone peptide array, arrays performed twice, n of 4
[1] = system: AIRE (PP)
Method in brief: (§1)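 Readout is array binding signal, reported as the mean and standard deviation over four replicates. Each purified GST-fused PHD domain was incubated at 0.5 μM with a library of 293 modified histone peptides.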

[2] = system: BAZ2B
Method in brief: as §1

[3] = system: BPTF (PB)
Method in brief: as §1

[4] = system: CHD4 (PPCC)
Method in brief: as §1

[5] = system: CHD5 (PCC)
Method in brief: as §1

[6] = system: CHD5 (PPCC)
Method in brief: as §1

[7] = system: DIDO1
Method in brief: as §1

[8] = system: DPF2 (PPC2W2)
Method in brief: as §1

[9] = system: ING1
Method in brief: as §1

[10] = system: ING2
Method in brief: as §1

[11] = system: ING3
Method in brief: as §1

[12] = system: ING4
Method in brief: as §1

[13] = system: ING5
Method in brief: as §1

[14] = system: KDM4C (TTP)
Method in brief: as §1

[15] = system: KDM5A (1)
Method in brief: as §1

[16] = system: KDM5A (3)
Method in brief: as §1

[17] = system: KDM5B (1)
Method in brief: as §1

[18] = system: KDM5B (3)
Method in brief: as §1

[19] = system: KDM7A
Method in brief: as §1

[20] = system: MLL5
Method in brief: as §1

[21] = system: MORC3 (CW)
Method in brief: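 Binding read as mean relative signal from 4 replicates; microarray held 293 synthetic histone peptides with single or combinatorial PTMs. Each GST-tagged PHD reader was applied at 0.5 μM using the optimized Petell protocol.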

[22] = system: PHF13
Method in brief: as §1

[23] = system: PHF21A
Method in brief: as §1

[24] = system: PHF23
Method in brief: as §1

[25] = system: PHF2
Method in brief: as §1

[26] = system: PHF8
Method in brief: as §1

[27] = system: PHRF1 (RP)
Method in brief: as §1

[28] = system: RAG2
Method in brief: as §1

[29] = system: SP140L
Method in brief: as §1

[30] = system: TAF3
Method in brief: as §1

[31] = system: TRIM66 (PB)
Method in brief: as §1

[32] = GST-tagged BPTF (PB = PHD + Bromodomain)
[33] = GST-tagged CHD4 (PPCC = Dual PHD + Dual Chromodomain)
[34] = GST-tagged CHD5 (PCC = PHD + Dual Chromodomain)
[35] = GST-tagged CHD5 (PPCC = Dual PHD + Dual Chromodomain)
[36] = GST-tagged DPF2 (PPC2W2 = Dual PHD + C2W2-type Zn-finger)
[37] = GST-tagged KDM4C (TTP = Tandem Tudor domain + PHD)
[38] = GST-tagged MORC3 (CW = CW-type Zn-finger)
[39] = GST-tagged TRIM66 (PB = PHD + Bromodomain)
[40] = GST-tagged reader, PB = PHD + Bromodomain
[41] = GST-tagged reader, PPCC = Dual PHD + Dual Chromodomain

H4 (1-23): H4 1-23
Array Heatmap signal, AIRE (PP) ([1]; GST-tagged AIRE (PP)): 0.4854 | Array Heatmap signal, BAZ2B ([2]; GST-tagged BAZ2B): 0.467 | Array Heatmap signal, BPTF (PB) [3, 32]: 0.3416 | Array Heatmap signal, CHD4 (PPCC) [4, 33]: 0.5522 | Array Heatmap signal, CHD5 (PCC) [5, 34]: 0.772 | Array Heatmap signal, CHD5 (PPCC) [6, 35]: 0.5714 | Array Heatmap signal, DIDO1 ([7]; GST-tagged DIDO1): 0.6189 | Array Heatmap signal, DPF2 (PPC2W2) [8, 36]: 0.7352 | Array Heatmap signal, ING1 ([9]; GST-tagged ING1): 0.4959 | Array Heatmap signal, ING2 ([10]; GST-tagged ING2): 0.5875 | Array Heatmap signal, ING3 ([11]; GST-tagged ING3): 0.4725 | Array Heatmap signal, ING4 ([12]; GST-tagged ING4): 0.4424 | Array Heatmap signal, ING5 ([13]; GST-tagged ING5): 0.3618 | Array Heatmap signal, KDM4C (TTP) [14, 37]: 0.5139 | Array Heatmap signal, KDM5A (1) ([15]; GST-tagged KDM5A (1)): 0.4868 | Array Heatmap signal, KDM5A (3) ([16]; GST-tagged KDM5A (3)): 0.4566 | Array Heatmap signal, KDM5B (1) ([17]; GST-tagged KDM5B (1)): 0.7073 | Array Heatmap signal, KDM5B (3) ([18]; GST-tagged KDM5B (3)): 0.4835 | Array Heatmap signal, KDM7A ([19]; GST-tagged KDM7A): 0.4019 | Array Heatmap signal, MLL5 ([20]; GST-tagged MLL5): 0.5337 | Array Heatmap signal, MORC3 (CW) [21, 38]: 0.3892 | Array Heatmap signal, PHF13 ([22]; GST-tagged PHF13): 0.625 | Array Heatmap signal, PHF21A ([23]; GST-tagged PHF21A): 0.4603 | Array Heatmap signal, PHF23 ([24]; GST-tagged PHF23): 0.53 | Array Heatmap signal, PHF2 ([25]; GST-tagged PHF2): 0.4784 | Array Heatmap signal, PHF8 ([26]; GST-tagged PHF8): 0.3699 | Array Heatmap signal, PHRF1 (RP) ([27]; GST-tagged PHRF1 (RP)): 0.532 | Array Heatmap signal, RAG2 ([28]; GST-tagged RAG2): 0.2838 | Array Heatmap signal, SP140L ([29]; GST-tagged SP140L): 0.3814 | Array Heatmap signal, TAF3 ([30]; GST-tagged TAF3): 0.3843 | Array Heatmap signal, TRIM66 (PB) [31, 39]: 0.7288

H4 (1-24): H4 1-24
Array Heatmap signal, AIRE (PP) ([1]; GST-tagged reader): 0.4377 | Array Heatmap signal, BAZ2B ([2]; GST-tagged reader): 0.4426 | Array Heatmap signal, BPTF (PB) [3, 40]: 0.3511 | Array Heatmap signal, CHD4 (PPCC) [4, 41]: 0.5779 | Array Heatmap signal, CHD5 (PCC) ([5]; GST-tagged reader, PCC = PHD + Dual Chromodomain): 0.7379 | Array Heatmap signal, CHD5 (PPCC) [6, 41]: 0.5427 | Array Heatmap signal, DIDO1 ([7]; GST-tagged reader): 0.6429 | Array Heatmap signal, DPF2 (PPC2W2) ([8]; GST-tagged reader, PPC2W2 = Dual PHD + C2W2-type Zn-finger): 0.6876 | Array Heatmap signal, ING1 ([9]; GST-tagged reader): 0.5158 | Array Heatmap signal, ING2 ([10]; GST-tagged reader): 0.5969 | Array Heatmap signal, ING3 ([11]; GST-tagged reader): 0.4908 | Array Heatmap signal, ING4 ([12]; GST-tagged reader): 0.4561 | Array Heatmap signal, ING5 ([13]; GST-tagged reader): 0.3526 | Array Heatmap signal, KDM4C (TTP) ([14]; GST-tagged reader, TTP = Tandem Tudor domain + PHD): 0.4748 | Array Heatmap signal, KDM5A (1) ([15]; GST-tagged reader): 0.4479 | Array Heatmap signal, KDM5A (3) ([16]; GST-tagged reader): 0.4381 | Array Heatmap signal, KDM5B (1) ([17]; GST-tagged reader): 0.6708 | Array Heatmap signal, KDM5B (3) ([18]; GST-tagged reader): 0.458 | Array Heatmap signal, KDM7A ([19]; GST-tagged reader): 0.3276 | Array Heatmap signal, MLL5 ([20]; GST-tagged reader): 0.528 | Array Heatmap signal, MORC3 (CW) ([21]; GST-tagged reader, CW = CW-type Zn-finger): 0.3968 | Array Heatmap signal, PHF13 ([22]; GST-tagged reader): 0.6132 | Array Heatmap signal, PHF21A ([23]; GST-tagged reader): 0.4744 | Array Heatmap signal, PHF23 ([24]; GST-tagged reader): 0.5274 | Array Heatmap signal, PHF2 ([25]; GST-tagged reader): 0.4794 | Array Heatmap signal, PHF8 ([26]; GST-tagged reader): 0.3446 | Array Heatmap signal, PHRF1 (RP) ([27]; GST-tagged reader): 0.5307 | Array Heatmap signal, RAG2 ([28]; GST-tagged reader): 0.2506 | Array Heatmap signal, SP140L ([29]; GST-tagged reader): 0.3819 | Array Heatmap signal, TAF3 ([30]; GST-tagged reader): 0.2583 | Array Heatmap signal, TRIM66 (PB) [31, 40]: 0.5969

H4 (11-27): H4 11-27
Array Heatmap signal, AIRE (PP) ([1]; GST-tagged AIRE (PP)): 0.4611 | Array Heatmap signal, BAZ2B ([2]; GST-tagged BAZ2B): 0.4866 | Array Heatmap signal, BPTF (PB) [3, 32]: 0.3518 | Array Heatmap signal, CHD4 (PPCC) [4, 33]: 0.6032 | Array Heatmap signal, CHD5 (PCC) [5, 34]: 0.8335 | Array Heatmap signal, CHD5 (PPCC) [6, 35]: 0.5646 | Array Heatmap signal, DIDO1 ([7]; GST-tagged DIDO1): 0.7393 | Array Heatmap signal, DPF2 (PPC2W2) [8, 36]: 0.705 | Array Heatmap signal, ING1 ([9]; GST-tagged ING1): 0.5543 | Array Heatmap signal, ING2 ([10]; GST-tagged ING2): 0.6025 | Array Heatmap signal, ING3 ([11]; GST-tagged ING3): 0.5001 | Array Heatmap signal, ING4 ([12]; GST-tagged ING4): 0.4682 | Array Heatmap signal, ING5 ([13]; GST-tagged ING5): 0.3644 | Array Heatmap signal, KDM4C (TTP) [14, 37]: 0.4895 | Array Heatmap signal, KDM5A (1) ([15]; GST-tagged KDM5A (1)): 0.4724 | Array Heatmap signal, KDM5A (3) ([16]; GST-tagged KDM5A (3)): 0.4231 | Array Heatmap signal, KDM5B (1) ([17]; GST-tagged KDM5B (1)): 0.652 | Array Heatmap signal, KDM5B (3) ([18]; GST-tagged KDM5B (3)): 0.4786 | Array Heatmap signal, KDM7A ([19]; GST-tagged KDM7A): 0.3743 | Array Heatmap signal, MLL5 ([20]; GST-tagged MLL5): 0.5751 | Array Heatmap signal, MORC3 (CW) [21, 38]: 0.3632 | Array Heatmap signal, PHF13 ([22]; GST-tagged PHF13): 0.6301 | Array Heatmap signal, PHF21A ([23]; GST-tagged PHF21A): 0.4899 | Array Heatmap signal, PHF23 ([24]; GST-tagged PHF23): 0.5647 | Array Heatmap signal, PHF2 ([25]; GST-tagged PHF2): 0.5451 | Array Heatmap signal, PHF8 ([26]; GST-tagged PHF8): 0.3468 | Array Heatmap signal, PHRF1 (RP) ([27]; GST-tagged PHRF1 (RP)): 0.4565 | Array Heatmap signal, RAG2 ([28]; GST-tagged RAG2): 0.2544 | Array Heatmap signal, SP140L ([29]; GST-tagged SP140L): 0.3427 | Array Heatmap signal, TAF3 ([30]; GST-tagged TAF3): 0.2827 | Array Heatmap signal, TRIM66 (PB) [31, 39]: 0.6367
